Measured values reported in paper PMC6987146, “Potent inhibition of HIV replication in primary human cells by novel synthetic polyketides inspired by Aureothin” (Scientific Reports, 2020).

Test system: PBMC proteome
Assay: Proteomics (LC-MSMS) of PBMCs treated with compound #7, with or without HIV exposure
Format: cell-based, human
Conditions: PBMCs from three donors; ≥2-fold change
Method: Stimulated PBMCs or CD4+ cells (5,000,000 cells) were seeded into 12-well plates before compound treatment and inoculation with HIV-1LAI at an MOI of 0.5, followed by 48 h incubation at 37 °C, 5% CO2. HIV inhibition was confirmed by quantifying infectious virus production in LC5-RIC cells as described above. Protein lysates were prepared from cells harvested, washed with PBS and lysed by incubating the cells for 10 min at 4 °C in lysis buffer (100 mM Tris-HCl pH 8.3, 150 mM NaCl, 1% glycerol, 1% NP-40, 0.5% deoxycholate, 0.1% SDS, 0.1% Triton-X100) and centrifuged for 20 min at 4 °C, 16,000 g to clear protein lysates. Protein concentrations were determined by using the Pierce^TM BCA Protein Assay Kit (ThermoFisher Scientific) according to manufacturer’s protocol. The proteomes of PBMCs from three different donors were analysed by LC-MSMS and data enrichment analysis was carried out using GeneRanker (Intrexon). For detailed information see Supplementary Methods.
After measuring the protein concentration of the cell lysates equal total protein amounts (10 µg per sample) were proteolysed with trypsin as described ^4 by a modified filter-aided sample preparation (FASP) procedure ^5.
Data analysis. The results from three donors were regarded as biological replicates. […]

SMILES: COc1oc(C2C/C(=C/C(C)=C/c3ccc(C(F)(F)F)cc3)CO2)c(C)c(=O)c1C (stereo not shown) [compound #7]
- proportion of differentially expressed proteins (of total proteins detected): < 10%
